Legend:
Escherichia coli [1] = assay: Antibacterial activity against Escherichia coli at a concentration of 10 ug/mL; format: functional
Escherichia coli [2] = assay: Antibacterial activity against Escherichia coli at a concentration of 20 ug/mL; format: functional
Bacillus subtilis [3] = assay: Antibacterial activity against Bacillus subtilis at a concentration of 160 ug/mL; format: functional
Bacillus subtilis [4] = assay: Antibacterial activity against Bacillus subtilis at a concentration of 40 ug/mL; format: functional
Bacillus subtilis [5] = assay: Antibacterial activity against Bacillus subtilis at a concentration of 120 ug/mL; format: functional
Escherichia coli [6] = assay: Antibacterial activity against Escherichia coli at a concentration of 80 ug/mL; format: functional
[7] = Lethal dose after intraperitoneal administration in mice; format: toxicity; conditions: mouse, in vivo, ip
Bacillus subtilis [8] = assay: Antibacterial activity against Bacillus subtilis at a concentration of 80 ug/mL; format: functional
Escherichia coli [9] = assay: Antibacterial activity against Escherichia coli at a concentration of 40 ug/mL; format: functional
[10] = Toxic effect after oral administration (6400 mg/kg) was determined in mice; No effect; format: toxicity, organism-based; conditions: mouse, in vivo
Klebsiella pneumoniae [11] = assay: Antibacterial activity against Klebsiella pneumoniae at a concentration of 80 ug/mL; format: functional
Klebsiella pneumoniae [12] = assay: Antibacterial activity against Klebsiella pneumoniae at a concentration of 40 ug/mL; format: functional
Klebsiella pneumoniae [13] = assay: Antibacterial activity against Klebsiella pneumoniae at a concentration of 160 ug/mL; format: functional
Klebsiella pneumoniae [14] = assay: Antibacterial activity against Klebsiella pneumoniae at a concentration of 120 ug/mL; format: functional

Compound | Zone of inhibition (Escherichia coli [1]) [mm] | Zone of inhibition (Escherichia coli [2]) [mm] | Zone of inhibition (Bacillus subtilis [3]) [mm] | Zone of inhibition (Bacillus subtilis [4]) [mm] | Zone of inhibition (Bacillus subtilis [5]) [mm] | Zone of inhibition (Escherichia coli [6]) [mm] | Lethal dose [7] [mg/kg] | Zone of inhibition (Bacillus subtilis [8]) [mm] | Zone of inhibition (Escherichia coli [9]) [mm] | Toxic effect [10] | Zone of inhibition (Klebsiella pneumoniae [11]) [mm] | Zone of inhibition (Klebsiella pneumoniae [12]) [mm] | Zone of inhibition (Klebsiella pneumoniae [13]) [mm] | Zone of inhibition (Klebsiella pneumoniae [14]) [mm]
Cc1cc(C)nc(NS(=O)(=O)c2ccc(NCNC(=O)c3ccc(NC(=O)c4cccnc4)cc3)cc2)n1 | 11.4 | 13.9 | 17.6 | 6 | 13.6 | 14.1 | 1000 | 11.2 | 13.7 | Not Active | – | – | – | –
Cc1cc(NS(=O)(=O)c2ccc(NCNC(=O)c3ccc(NC(=O)c4cccnc4)cc3)cc2)no1 | 11.3 | 11.5 | 23.5 | 14.1 | 20.7 | 13.4 | 1000 | 18.6 | 11.8 | Not Active | 14.7 | 12.5 | 13.7 | 14.4
O=C(NCNc1ccc(S(=O)(=O)Nc2ncccn2)cc1)c1ccc(NC(=O)c2cccnc2)cc1 | 10.4 | 10.6 | 25.3 | 15.4 | 22.9 | 18.7 | 1000 | 20.4 | 13.7 | Not Active | 18.3 | 18.9 | 20.9 | 19.2
N=C(N)NS(=O)(=O)c1ccc(NCNC(=O)c2ccc(NC(=O)c3cccnc3)cc2)cc1 | 10.9 | 11.4 | – | – | – | 11.7 | 1000 | – | 11 | Not Active | – | – | – | –
Cc1nnc(NS(=O)(=O)c2ccc(NCNC(=O)c3ccc(NC(=O)c4cccnc4)cc3)cc2)s1 | 12.4 | 14.9 | – | – | – | 15 | 1000 | – | 14.4 | Not Active | – | – | – | –
NS(=O)(=O)c1ccc(NCNC(=O)c2ccc(NC(=O)c3cccnc3)cc2)cc1 | 13.1 | 12.7 | – | – | – | 13.2 | – | – | 13.2 | – | 12 | 11.1 | 21.4 | 13.7
Nc1ccc(S(=O)(=O)Nc2ncccn2)cc1 [SULFADIAZINE] | 9.7 | 17.2 | 26.9 | 20.8 | 26.3 | 25.5 | – | 27.2 | 22.2 | – | 29.2 | 27 | 25.6 | 29.5
Cc1cc(C)nc(NS(=O)(=O)c2ccc(N)cc2)n1 [SULFAMETHAZINE] | 15.1 | 16.9 | 22 | 15.4 | 21.7 | 18.5 | – | 19.9 | 18.8 | – | – | – | – | –
Cc1nnc(NS(=O)(=O)c2ccc(N)cc2)s1 [SULFAMETHIZOLE] | 16.2 | 17.4 | – | – | – | 25.5 | – | – | 22.2 | – | – | – | – | –
Cc1cc(NS(=O)(=O)c2ccc(N)cc2)no1 [SULFAMETHOXAZOLE] | 19.6 | 22.9 | 27.9 | 22.8 | 27.4 | 23.6 | – | 25.4 | 23.2 | – | 22.4 | 11.6 | 6 | 26.4
Nc1ccc(S(N)(=O)=O)cc1 [SULFANILAMIDE] | 20.4 | 22.3 | – | – | – | 25.4 | – | – | 22.8 | – | – | – | – | –
